Laboratory results: ChEMBL document CHEMBL1201862, “PubChem BioAssay data set” (2004)
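Dose response: 5 concentrations. Exposure: 48 h. Format: 96-well plates. Endpoint: linear interpolation; highest concentration if not reached. Here, GI50 denotes the concentration required for 50% inhibition of growth.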 The source made the active and inactive calls. Cut-off read from the data, not from the text of the source: active = GI50 up to about 1.1 µM and inactive = higher.

How the values were obtained:
Assay in all cases: growth of human tumour cells (NCI), 48 h
[1] = test system: HCT-15
[2] = test system: OVCAR-5
[3] = test system: NCI-H226
[4] = test system: HOP-92
[5] = test system: CAKI-1
[6] = test system: TK-10
[7] = test system: BT-549
[8] = test system: SF-268
[9] = test system: LOX IMVI
[10] = test system: SK-MEL-5
[11] = test system: NCI-H23
[12] = test system: SNB-19
[13] = test system: MCF7
[14] = test system: A549
[15] = test system: A498
[16] = test system: MDA-MB-435
[17] = test system: 786-0
[18] = test system: NCI-H460
[19] = test system: MDA-N
[20] = test system: SF-539

CCC12CCCN3CCc4c(n(c5ccccc45)C(O)(C(=O)OC)C1)C32 (stereo not drawn)
GI50 [1]: > 100 µM
GI50 [2]: > 100 µM (inactive)
GI50 [3]: > 100 µM (inactive)
GI50 [4]: > 100 µM (inactive)
GI50 [5]: > 100 µM (inactive)
GI50 [6]: > 100 µM (inactive)
GI50 [7]: > 100 µM (inactive)
GI50 [8]: > 100 µM (inactive)
GI50 [9]: > 100 µM (inactive)
GI50 [10]: > 100 µM (inactive)
GI50 [11]: > 100 µM (inactive)
GI50 [12]: > 100 µM (inactive)
GI50 [13]: > 100 µM (inactive)
GI50 [14]: > 100 µM (inactive)
GI50 [15]: > 100 µM (inactive)
GI50 [16]: > 100 µM (inactive)
GI50 [17]: > 100 µM (inactive)
GI50 [18]: > 100 µM (inactive)
GI50 [19]: > 100 µM (inactive)
GI50 [20]: > 100 µM (inactive)

CN(Nc1cc(=O)[nH]c(=O)[nH]1)c1ccccc1
GI50 [2]: > 100 µM (inactive)
GI50 [3]: > 100 µM (inactive)
GI50 [4]: > 100 µM (inactive)
GI50 [5]: > 100 µM (inactive)
GI50 [6]: > 100 µM (inactive)
GI50 [7]: > 100 µM (inactive)
GI50 [8]: > 100 µM (inactive)
GI50 [9]: > 100 µM (inactive)
GI50 [10]: > 100 µM (inactive)
GI50 [11]: > 100 µM (inactive)
GI50 [12]: > 100 µM (inactive)
GI50 [13]: > 100 µM (inactive)
GI50 [14]: > 100 µM (inactive)
GI50 [15]: > 100 µM (inactive)
GI50 [16]: > 100 µM (inactive)
GI50 [17]: > 100 µM (inactive)
GI50 [18]: > 100 µM (inactive)
GI50 [19]: > 100 µM (inactive)
GI50 [20]: > 100 µM (inactive)

CC(=O)OCCCCn1cc(Cn2ccc(=O)n(Cc3cn(CCCCOC(C)=O)nn3)c2=O)nn1
GI50 [1]: > 100 µM
GI50 [2]: > 100 µM (inactive)
GI50 [3]: > 100 µM (inactive)
GI50 [4]: > 100 µM (inactive)
GI50 [5]: > 100 µM (inactive)
GI50 [6]: > 100 µM (inactive)
GI50 [7]: > 100 µM (inactive)
GI50 [8]: > 100 µM (inactive)
GI50 [9]: > 100 µM (inactive)
GI50 [10]: > 100 µM (inactive)
GI50 [11]: > 100 µM (inactive)
GI50 [12]: > 100 µM (inactive)
GI50 [13]: > 100 µM (inactive)
GI50 [14]: > 100 µM (inactive)
GI50 [15]: > 100 µM (inactive)
GI50 [16]: > 100 µM (inactive)
GI50 [17]: > 100 µM (inactive)
GI50 [19]: > 100 µM (inactive)
GI50 [20]: > 100 µM (inactive)

O=C1CCCCC[C@]12SC[C@H]1CON=C12
GI50 [1]: 31.3 µM
GI50 [2]: > 100 µM (inactive)
GI50 [3]: > 100 µM (inactive)
GI50 [4]: 12.9 µM (inactive)
GI50 [5]: 22.2 µM (inactive)
GI50 [6]: > 100 µM (inactive)
GI50 [7]: 39.2 µM (inactive)
GI50 [9]: 35.2 µM (inactive)
GI50 [10]: > 100 µM (inactive)
GI50 [11]: 94.8 µM (inactive)
GI50 [12]: > 100 µM (inactive)
GI50 [13]: 21.9 µM (inactive)
GI50 [14]: 37.1 µM (inactive)
GI50 [15]: 7.16 µM (inactive)
GI50 [16]: 16.7 µM (inactive)
GI50 [17]: 34 µM (inactive)
GI50 [18]: 39.1 µM (inactive)
GI50 [19]: 12.5 µM (inactive)
GI50 [20]: 41.3 µM (inactive)

CSc1cc(-c2cccs2)sc1-c1cc(SC)c(-c2sc(-c3sc(-c4cccs4)cc3SC)cc2SC)s1
GI50 [1]: > 100 µM
GI50 [2]: 30.6 µM (inactive)
GI50 [4]: > 100 µM (inactive)
GI50 [5]: > 100 µM (inactive)
GI50 [6]: > 100 µM (inactive)
GI50 [7]: > 100 µM (inactive)
GI50 [8]: > 100 µM (inactive)
GI50 [9]: > 100 µM (inactive)
GI50 [10]: > 100 µM (inactive)
GI50 [11]: > 100 µM (inactive)
GI50 [12]: > 100 µM (inactive)
GI50 [13]: > 100 µM (inactive)
GI50 [14]: > 100 µM (inactive)
GI50 [15]: > 100 µM (inactive)
GI50 [16]: > 100 µM (inactive)
GI50 [17]: > 100 µM (inactive)
GI50 [18]: > 100 µM (inactive)
GI50 [19]: > 100 µM (inactive)
GI50 [20]: > 100 µM (inactive)

C=CCn1c(N)c(C#N)c(C#N)c1-c1ccccc1
GI50 [1]: > 100 µM
GI50 [2]: > 100 µM (inactive)
GI50 [3]: > 100 µM (inactive)
GI50 [4]: > 100 µM (inactive)
GI50 [5]: > 100 µM (inactive)
GI50 [6]: > 100 µM (inactive)
GI50 [7]: > 100 µM (inactive)
GI50 [8]: > 100 µM (inactive)
GI50 [9]: > 100 µM (inactive)
GI50 [10]: > 100 µM (inactive)
GI50 [11]: > 100 µM (inactive)
GI50 [12]: > 100 µM (inactive)
GI50 [13]: > 100 µM (inactive)
GI50 [14]: > 100 µM (inactive)
GI50 [15]: > 100 µM (inactive)
GI50 [16]: > 100 µM (inactive)
GI50 [17]: > 100 µM (inactive)
GI50 [19]: > 100 µM (inactive)
GI50 [20]: > 100 µM (inactive)

COc1ccc(C2SCC(=O)N2NC(=O)c2ccc(NC(C)=O)cc2)cc1 (stereo not drawn)
GI50 [1]: > 100 µM
GI50 [2]: > 100 µM (inactive)
GI50 [3]: > 100 µM (inactive)
GI50 [4]: 38 µM (inactive)
GI50 [6]: > 100 µM (inactive)
GI50 [7]: 74.1 µM (inactive)
GI50 [8]: > 100 µM (inactive)
GI50 [10]: > 100 µM (inactive)
GI50 [11]: > 100 µM (inactive)
GI50 [12]: > 100 µM (inactive)
GI50 [13]: > 100 µM (inactive)
GI50 [14]: > 100 µM (inactive)
GI50 [15]: > 100 µM (inactive)
GI50 [16]: > 100 µM (inactive)
GI50 [17]: > 100 µM (inactive)
GI50 [18]: > 100 µM (inactive)
GI50 [19]: > 100 µM (inactive)
GI50 [20]: > 100 µM (inactive)
